Reference: patent US20200270310A1, “MAFG AS A POTENTIAL THERAPEUTIC TARGET TO RESTORE CHEMOSENSITIVITY IN PLATINUM-RESISTANT CANCER CELLS” (FUNDACÓIN PARA LA INVESTIGACIÓN BIOMÉDICA DEL HOSPITAL …, priority 2017, published 2020)
Values joined by “and” are separate entries in the source; they are usually repeats but may differ in a detail not shown here. Equal values may be shown once.

What was measured:
Assay in all cases: Viability to CDDP, resistant index
Type in all cases: cell-based, human
A2780-R cells = settings: versus parental A2780
From the text: (§1) Fifteen human cancer cell lines were purchased from ATCC (Manassas, Va.) or ECACC (Sigma-Aldrich, Spain) and cultured as recommended. The CDDP-resistant variants A2780R and OVCAR3R were selected after a final exposure to […] cisplatin, respectively (Farma Ferrer, Spain), as previously described for H23R and H460R variants The additional 11 human cell lines, PC-3, LNCAP, H727, HT29, A549, BT474, LoVo, IMIM-PC-2, SKOV3, SW780 and IMR90, were used for further validations. For viability assays cells were treated with increasing doses of CDDP. The epigenetic reactivation drugs 5Aza-2deoxycytidine (5Aza-dC) and trichostatin A (TSA) (Sigma-Aldrich, Spain) were used at […] and at 300nM respectively.

H460R cells = settings: versus parental H460
From the text: as §1

H23R cells = settings: versus H23S
From the text: as §1

OVCAR3-R cells = settings: versus parental OVCAR3
From the text: as §1

For [NH2][Pt]([NH2])([Cl])[Cl] [CDDP, Cisplatin], the “Resistant-Index (RI) to CDDP” value (A2780-R cells) was 3.00, the “Resistant-Index (RI) to CDDP” value (H460R cells) was 2.50 and the “Resistant-Index (RI) to CDDP” value (H23R cells) was 3.35 and > 3. For the same compound, the “Resistant-Index (RI) to CDDP” value (OVCAR3-R cells) was 2.96.
